The supplement of paper PMC10307832

Assays:
Assay in all cases: relative viability (nuclei count vs DMSO), 5 days (fraction); higher = more cells survive
Venetoclax + Alpelisib = compound: CC1(C)CCC(CN2CCN(c3ccc(C(=O)NS(=O)(=O)c4ccc(NCC5CCOCC5)c([N+](=O)[O-])c4)c(Oc4cnc5[nH]ccc5c4)c3)CC2)=C(c2ccc(Cl)cc2)C1 [Venetoclax] + Cc1nc(NC(=O)N2CCC[C@H]2C(N)=O)sc1-c1ccnc(C(C)(C)C(F)(F)F)c1 [Alpelisib] (partner 2 µM)
In short: (§1)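 Relative viability is defined as nuclei in treated wells over nuclei in vehicle wells. Duplicate plates were run and medians reported. Lung cancer cell lines in 1536-well plates were dosed by pin tool one day after seeding, with one drug or with a fixed anchor-drug dose plus five library-drug doses (not always all listed) in √10 steps, and nuclei were counted after 5 days.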

Venetoclax + Dasatinib = compound: CC1(C)CCC(CN2CCN(c3ccc(C(=O)NS(=O)(=O)c4ccc(NCC5CCOCC5)c([N+](=O)[O-])c4)c(Oc4cnc5[nH]ccc5c4)c3)CC2)=C(c2ccc(Cl)cc2)C1 [Venetoclax] + Cc1nc(Nc2ncc(C(=O)Nc3c(C)cccc3Cl)s2)cc(N2CCN(CCO)CC2)n1 [Dasatinib] (partner 0.075 µM)
In short: as §1

Selumetinib + Foretinib = compound: Cn1cnc2c(F)c(Nc3ccc(Br)cc3Cl)c(C(=O)NOCCO)cc21 [Selumetinib] + COc1cc2c(Oc3ccc(NC(=O)C4(C(=O)Nc5ccc(F)cc5)CC4)cc3F)ccnc2cc1OCCCN1CCOCC1 [Foretinib] (partner 0.25 µM)
In short: as §1

Selumetinib + Crizotinib = compound: Cn1cnc2c(F)c(Nc3ccc(Br)cc3Cl)c(C(=O)NOCCO)cc21 [Selumetinib] + C[C@@H](Oc1cc(-c2cnn(C3CCNCC3)c2)cnc1N)c1c(Cl)ccc(F)c1Cl [Crizotinib] (partner 1 µM)
In short: as §1

Row | Cell Line | relative viability (Venetoclax + Alpelisib; first compound 0.01 µM) | relative viability (Venetoclax + Alpelisib; first compound 0.03162 µM) | relative viability (Venetoclax + Alpelisib; first compound 0.1 µM) | relative viability (Venetoclax + Alpelisib; first compound 0.3162 µM) | relative viability (Venetoclax + Alpelisib; first compound 1 µM) | relative viability (Venetoclax + Dasatinib; first compound 0.01 µM) | relative viability (Venetoclax + Dasatinib; first compound 0.03162 µM) | relative viability (Venetoclax + Dasatinib; first compound 0.1 µM) | relative viability (Venetoclax + Dasatinib; first compound 0.3162 µM) | relative viability (Venetoclax + Dasatinib; first compound 1 µM) | relative viability (Selumetinib + Foretinib; first compound 0.02 µM) | relative viability (Selumetinib + Foretinib; first compound 0.06325 µM) | relative viability (Selumetinib + Foretinib; first compound 0.2 µM) | relative viability (Selumetinib + Foretinib; first compound 0.6325 µM) | relative viability (Selumetinib + Crizotinib; first compound 0.02 µM) | relative viability (Selumetinib + Crizotinib; first compound 0.06325 µM) | relative viability (Selumetinib + Crizotinib; first compound 0.2 µM) | relative viability (Selumetinib + Crizotinib; first compound 0.6325 µM)
1 | LCLC-103H | 1.04 | 0.983 | 1.04 | 1 | 0.974 | 0.48 | 0.439 | 0.479 | 0.463 | 0.45 | 0.744 | 0.64 | 0.646 | 0.72 | 1.02 | 0.846 | 0.857 | 0.948
2 | LK-2 | 0.993 | 1.28 | 1.12 | 1.19 | 1.06 | 0.403 | 0.319 | 0.259 | 0.247 | 0.255 | 1.68 | 1.51 | 0.968 | 1.23 | 0.239 | 0.234 | 0.229 | 0.262
3 | LOU-NH91 | 0.653 | 0.802 | 0.689 | 0.791 | 0.759 | 0.511 | 0.642 | 0.532 | 0.58 | 0.495 | 0.87 | 0.859 | 0.834 | 0.738 | 0.709 | 0.715 | 0.683 | 0.677
4 | LU99A | 0.432 | 0.545 | 0.548 | 0.522 | 0.505 | 0.625 | 0.632 | 0.659 | 0.516 | 0.583 | 0.898 | 0.729 | 0.83 | 0.699 | 0.615 | 0.556 | 0.558 | 0.544
5 | LXF-289 | 1.05 | 1 | 1.04 | 1.04 | 0.934 | 0.137 | 0.262 | 0.242 | 0.253 | 0.166 | 0.939 | 0.867 | 0.738 | 0.737 | 0.872 | 0.7 | 0.664 | 0.616
6 | NCI-H23 | 0.658 | 0.62 | 0.64 | 0.644 | 0.546 | 0.664 | 0.781 | 0.636 | 0.706 | 0.628 | 0.952 | 0.916 | 0.654 | 0.612 | 0.583 | 0.47 | 0.328 | 0.406
7 | NCI-H322M | 0.918 | 0.881 | 0.836 | 0.764 | 0.752 | 0.291 | 0.239 | 0.237 | 0.246 | 0.24 | 0.853 | 0.782 | 0.704 | 0.757 | 0.708 | 0.807 | 0.796 | 0.828
8 | NCI-H358 | 0.769 | 0.828 | 0.786 | 0.903 | 0.839 | 0.309 | 0.17 | 0.15 | 0.158 | 0.161 | 0.43 | 0.331 | 0.272 | 0.291 | 0.467 | 0.368 | 0.326 | 0.319
9 | NCI-H441 | 0.828 | 0.705 | 0.821 | 0.899 | 0.608 | 0.685 | 0.667 | 0.482 | 0.546 | 0.596 | 0.964 | 0.839 | 0.903 | 0.667 | 0.724 | 0.858 | 0.78 | 0.556
10 | NCI-H460 | 0.539 | 0.446 | 0.446 | 0.472 | 0.447 | 0.597 | 0.532 | 0.401 | 0.527 | 0.478 | 0.949 | 0.899 | 0.886 | 0.404 | 0.852 | 0.714 | 0.672 | 0.544
11 | NCI-H520 | 0.893 | 1.09 | 0.865 | 0.796 | 0.847 | 0.218 | 0.193 | 0.158 | 0.178 | 0.195 | 0.746 | 0.759 | 1.02 | 0.758 | 0.791 | 0.766 | 0.764 | 0.809
12 | NCI-H596 | 0.516 | 0.487 | 0.502 | 0.544 | 0.397 | 0.707 | 0.549 | 0.587 | 0.572 | 0.615 | 0.832 | 0.781 | 0.696 | 0.653 | 0.966 | 0.875 | 0.845 | 0.599
13 | NCI-H647 | 0.703 | 1.05 | – | 1 | 1.01 | 0.16 | 0.218 | 0.162 | 0.238 | 0.228 | 1.19 | 1.21 | 0.842 | 1.02 | 1.14 | 0.942 | 0.926 | 0.99
14 | NCI-H650 | 1.07 | 0.989 | – | 1.13 | 1.01 | 0.488 | 0.539 | 0.453 | 0.484 | 0.432 | 1.07 | 1.18 | 1.21 | 1.17 | 0.793 | 0.593 | 0.575 | 0.67
15 | NCI-H661 | 0.597 | 1.11 | 0.878 | 0.569 | 0.48 | 0.809 | 1.04 | 0.871 | 0.995 | 0.888 | 1.12 | 0.979 | 1.02 | 0.913 | 1.25 | 0.945 | 1.07 | 1.23
